Data: patent US9937163B2, “Remedy for psychoneurotic diseases” (National University Corporation Chiba University, priority 2004, dated 2018)
Marks after values point to notes of the source that are not given here.

Test system: P50 auditory evoked potential in schizophrenic patients
Test: P50 auditory evoked potential in schizophrenic patients before and 1 h after administration of tropisetron
Assay type: in vivo, human
Experimental: Twenty-two patients with schizophrenia (14 males and 8 females, average age: 39.8 years old (standard deviation 14.0), age range: 18-60 years old) were selected as subjects. The subjects were diagnosed by psychiatrists on the basis of DSM-IV criteria. Psychiatric symptoms and cognitive functions of the subjects were evaluated using Brief Psychiatric Rating Scale (BPRS), Global Assessment of Functioning (GAF), Mini-Mental State Examination (MMSE) and Wechsler Adult Intelligence Scale-Revised (WAIS-R).
First, a baseline P50 auditory evoked potential of a subject was measured (conditioning P50), then the P50 was measured 1 h after administration of 10 mg of tropisetron (test P50). P50 is a positive brain wave which appears approximately 50 m seconds after an auditory stimulus. Consecutive click sounds with an interval of 500 m seconds (conditioning stimulus and test stimulus) at 70 dB were presented every 10 seconds for 120 times, and the brain wave measured at the parietal region was summed to identify P50. The resistance of an electrode was set at 10 kW or less, and the brain wave exceeding ±70 mV was omitted as artifact. The largest positive wave between 40 ms and 90 ms after the conditioning stimulus was designated to be the conditioning P50, and the positive wave after the test stimulus whose latency is the closest to that of the conditioning P50 was designated to be the test P50. The amplitude of P50 was defined as the difference between the positive peak and the preceding negative trough. The P50 ratio was defined as the amplitude of the test P50 divided by the amplitude of the conditioning P50.
Data were expressed as average±standard deviation. The statistical analysis between two groups was performed using Student's t-test. The relationship between variables was confirmed by Pearson's product-moment correlation coefficient. p Values of 0.05 or less were designated to be statistically significant.

[1] = 1 h after administration of 10 mg tropisetron, 19 subjects with baseline P50 ratio larger than 0.5

For CN1[C@@H]2CC[C@H]1C[C@@H](OC(=O)c1c[nH]c3ccccc13)C2 [tropisetron, (1R,3r,5S)-8-methyl-8-azabicyclo[3.2.1]oct-3-yl 1H-indole-3-carboxylate], the “Change in amplitude of conditioning P50 between before and after administration” value (10 mg tropisetron, 1 h, 19 subjects, t=0.79, df=18, p=0.44) was “no significant differences”, the “Change in latency of conditioning P50 between before and after administration” value (10 mg tropisetron, 1 h, 19 subjects, t=1.05, df=18, p=0.31) was “no significant differences” and the “Change in P50 ratio between before and after administration” value (10 mg tropisetron, 1 h, 19 subjects, t=2.32, df=18, p=0.033) was “significant decrease”. The “Latency, conditioning P50, After, Mean” value [1] was 59.79 ms, the “Latency, test P50, After, Mean” value [1] was 59.16 ms and the “P50(T/C)ratio, After, Mean” value (1 h after administration of 10 mg tropisetron, 19 subjects with baseline P50 ratio larger than 0.5, amplitude of test P50 divided by amplitude of conditioning P50) was 0.61*. The “Effect on cognitive dysfunction in schizophrenia” value (conclusion drawn from the decrease in P50 ratios in patients with schizophrenia) was “improves cognitive dysfunction in schizophrenia” and the “Number of subjects in whom the P50 ratio improved to 0.5 or less” value (of 19 subjects with baseline P50 ratio larger than 0.5, after 10 mg tropisetron) was “four”.
